Data on 10 compounds can be found in paper PMC9571170, “Exploring Active Ingredients, Beneficial Effects, and Potential Mechanism of Allium tenuissimum L. Flower for Treating T2DM Mice Based on Network Pharmacology and Gut Microbiota” (Nutrients, 2022).

The target in data set [1] is α−Glucosidase (from yeast). Briefly: In vitro α−glucosidase inhibitory activity assay (PNPG substrate). The data set is classed as biochemical. The conditions noted are these: n=3; acarbose positive control. How it is done:
The α−glucosidase inhibitory activity assay method of A. tenuissimum flower flavonoids was slightly modified based on previous studies. A 96−well plate was used for preparing the mixture consisting of 0.1 M PBS (pH 6.8), 1.0 mg/mL sample solution, and 2 U/mL α−glucosidase, which were incubated at 37 °C for 10 min. 20 μL PNPG solution (2.5 Mm, dissolved in PBS) was added to each well to start the reaction and incubated at 37 °C. Twenty minutes later, 80 μL Na2CO3 solution (0.2 mol/L) was added to each well to terminate the reaction. The absorbance was measured at 405 nm by Tecan Infinite M200 PRO (Tecan Trading Co. Ltd., Shanghai, China). […] The inhibitory rate was calculated by the absorbance formula below:Inhibition% = [1 − (Aa − Ab) / Ac] × 100% a. 20 μL PNPG + 80 μL Na2CO3 + 20 μL PBS + 20 μL sample + 20 μL enzyme; b. 20 μL PNPG + 80 μL Na2CO3 + 40 μL PBS +20 μL sample; c. 20 μL PNPG + 80 μL Na2CO3 + 40 μL PBS + 20 μL enzyme.

On the set-up of data set [2]: method as in TCMSP database. The conditions noted are these: filter condition; ref TCMSP database; cited from earlier work.

Where only a bound is given, the exact number is not on record here.

Usually IC50 stands for the concentration at which inhibition is half-maximal. In data set [1], `CC(=O)OCC1OC(OC2C(C)OC(Oc3c(-c4ccc(O)cc4)oc4cc(O)cc(O)c4c3=O)C(O)C2O)C(O)C(O)C1O` (centres unmarked) [AF−1, multiflorin A] gave an IC50 of 289 ± 14 µM.

As for `O=c1c(O)c(-c2ccc(O)cc2)oc2cc(O)cc(O)c12` [AF−8, kaempferol], the “Oral bioavailability (OB)” value in data set [2] is reported as ≥ 30%.

For the compound `CC(C)=CCc1cc(-c2oc3cc(O)cc(O)c3c(=O)c2O)ccc1O` [AF−11, isolicoflavonol], 176 ± 6 µM corresponded to half-maximal inhibition in data set [1] (IC50). In addition, the “Oral bioavailability (OB)” value in data set [2] is on record as ≥ 30%.

`COc1ccc(-c2oc3cc(OC)cc(O)c3c(=O)c2OC2OC(CO)C(O)C(O)C2O)cc1` (centres unmarked) [AF−15, kaempferol−4’,7−dimethyl−3−O−glucoside] yielded an IC50 in data set [1] of 506 ± 1 µM.

For the compound `CN1[C@H]2C[C@H](OC(=O)[C@H](CO)c3ccccc3)C[C@@H]1[C@@H](O)C2` [AF−23, anisodamine], the “Oral bioavailability (OB)” value in data set [2] is ≥ 30%.

`O=C(C=Cc1ccc(O)cc1)OCC1OC(Oc2c(-c3ccc(O)cc3)oc3cc(O)cc(O)c3c2=O)C(O)C(O)C1OC(=O)C=Cc1ccc(O)cc1` (stereo not drawn) [AF−33, kaempferol−3−O−β−D−4′′,6′′− di−(E)−p−coumaroyl glucoside]: in data set [1], the IC50 is 300 ± 23 µM.

The compound `O=c1c(OC2OC(COC3OC(CO)C(O)C(O)C3OC3OC(CO)C(O)C(O)C3O)C(O)C(O)C2O)c(-c2ccc(O)cc2)oc2cc(O)cc(O)c12` (stereo not drawn) [AF−34, kaempferol 3−O−β−D−glucopyranosyl−(1→2) −β−D−glucopyranosyl−(1→6)−β−D−glucopyranodide] returned an IC50 in data set [1] of 335 ± 1 µM.

In data set [1], `COc1cc(-c2oc3cc(O)cc(O)c3c(=O)c2OC2OC(COC(C)=O)C(O)C(O)C2O)ccc1O` (stereo not drawn) [AF−36, isorhamnetin 3−O−β−D−(6−acetyl)−galactopyranoside] came in with an IC50 of 326 ± 13 µM.

Compound `COc1ccc(-c2oc3cc(O)cc(O)c3c(=O)c2O)cc1CC=C(C)C` [AF−38, macasiamenol B] gave an IC50 in data set [1] of 230 ± 34 µM.

Compound `COc1ccc(-c2oc3cc(O)cc(O)c3c(=O)c2OC2OC(CO)C(O)C(O)C2O)cc1O` (centres unmarked) [AF−40, tamarixin] returned an IC50 in data set [1] of 282 ± 3 µM.
